Marks after values point to notes of the source that are not given here.
What was measured:
Type in all cases: physicochemical
[1] = Ketone hydration equilibrium and thermodynamic parameters by variable temperature NMR (Technique 2), van't Hoff fit; settings: for ΔG ° / ΔH ° / −TΔS °: van't Hoff fit; for KH at 25° C. (KH,app): apparent constant
Experimental: (§1) Ketone hydration to diol equilibrium constants (KH) and thermodynamic parameters for Example compounds were measured by NMR by adapting techniques from the literature [Bushman et al., Berichte der Bunsengesellschaft für physikalische Chemie, 84: 41-44 (1980); Greenzaid et al., J. Amer. Chem. Soc. 89: 749-756 (1967); and R. Stewart and J. D. Van Dyke, Can. J. Chem. 50: 1992-1999 (1972)] using either Technique 1 (IIa) or Technique 2 (IIb), further deviations to the general methods are noted with those Examples. D2O concentration was minimized to reduce the isotope effect (˜20% according to Bushman 1980).
(§2) The conversion from ketone to diol results in an upfield change in nuclear chemical shift. This change in nuclear resonance frequency can then be used to distinguish between ketone and diol peaks in the NMR spectrum. Since area integration of NMR peaks is directly related to the number of atoms resonating at that frequency, the area ratio between diol and ketone peaks can be used to calculate equilibrium constants. Assuming water is in high excess relative to the ketone its activity can be treated as unity resulting in the KH being only dependent on the relative peak integration ratio of diol/ketone:
For a select set of compounds a series of variable temperature NMR measurements (IIB: Technique 2) were made to extract reaction standard enthalpy)(ΔH°) and entropy(ΔS°) contributions to free energy of hydration)(ΔG°). Equilibrium constants versus temperature data were fit to the van't Hoff equation to determine ΔH°, ΔS°, and ΔG°; changes in heat capacity were assumed to be negligible:
In a volumetric flask (1.00, 2.00, or 10.00 mL) ketones were dissolved to a concentration of approximately 0.5 M in solvents composed of either D2O/H2O (5/95, v/v; method 2a) or d^6-DMSO/DMSO/H2O (10/40/50 by moles; method 2b). The solution was left to equilibrate at room temperature overnight then transferred to a standard NMR tube.
A series of 1H NMR (400 MHz)measurements were made with variable temperature control (0.1° C. precision) ranging from 25-65° C., typically in 10° C. increments. At each increment once the temperature had stabilized to within ±0.2° C. of the goal, samples were equilibrated for 5 minutes prior to the measurement.
The van't Hoff equation was then fit to a plot of KH vs. temperature; energy standard deviation were calculated from the fit of the equation to the raw data.
Examples 2-6 and 2-11 were prepared using variations to the standard procedure. Example 2-6 was prepared with a concentration of 50 mM, so that it was soluble in water. For Example 2-11, a small amount of enol was also observed (about 0.08 relative to ketone). To account for this, we calculated KH for Example 2-11 as diol/(ketone+enol), assuming enol formation from the ketone is reversible.

[2] = Ketone hydration to diol equilibrium constant by room temperature NMR (Technique 1); settings: for KH,app at 20 ± ° C. (1H) / KH,app at 20 ± ° C. (19F): d6-DMSO/H2O (1/1, mol/mol); for KH,app at 20 ± ° C. (1H): 1H NMR; for KH,app at 20 ± ° C. (19F): 19F NMR
Experimental: as §1, §2
In many Examples, only a single resonance for each species was available for to determine the diol/ketone ratio. Where available equilibrium constants were calculated by averaging multiple resonance together normalized by number of hydrogens associated with each of them.
Due to the insolubility of some ketones in water, DMSO was used as a co-solvent at 50% by mole. Equilibrium constants obtained with DMSO as a co-solvent are only apparent constants (KH,app) since this alters the activities of the compounds relative to a pure water solvent. […] J. Chem. 50: 1992-1999 (1972)].
In a volumetric flask, ketones were dissolved to a concentration of approximately 0.5 M in 50 mol % d^6-DMSO/H2O. Solutions were left to equilibrate overnight then transferred to an NMR tube for analysis. Solutions were measured by ^1H NMR at (400 MHz) or ^19F NMR (376 MHz) at ambient temperature (20±1° C.).
(§3) This should not affect the measured hydration equilibrium greatly though since water is in such high excess. From Examples 2-2 to 2-5, the tunability of the hydration constant by altering the substituent on the benzyl ring is readily apparent.

[3] = Solubility in water (remark on sample preparation)
Text: as §3

Row | Compound | KH at 25° C. ([1]; D2O/H2O (5/95, v/v)) | ΔG ° ([1]; D2O/H2O (5/95, v/v)) [kcal/mol] | ΔH ° ([1]; D2O/H2O (5/95, v/v)) [kcal/mol] | −TΔS ° ([1]; D2O/H2O (5/95, v/v)) [kcal/mol] | KH,app at 20 ± ° C. (19F) [2] | other results
1 | O=C(CF)CF [Example 2-9] | 27 | -1.94 ± 0.24 | -7.5 ± 0.17 | 5.57 ± 0.17 | – | –
2 | O=C1CCCCC1F (stereo not drawn) [Example 2-8] | – | – | – | – | – | KH at 25° C. (KH,app) ([1]; DMSO/H2O (1/1, mol/mol)): 0.52^a; ΔG ° ([1]; DMSO/H2O (1/1, mol/mol)): 0.96 ± 0.17 kcal/mol; ΔH ° ([1]; DMSO/H2O (1/1, mol/mol)): -5.35 ± 0.096 kcal/mol; −TΔS ° ([1]; DMSO/H2O (1/1, mol/mol)): 6.31 ± 0.14 kcal/mol
3 | COc1ccc(C(=O)C(F)(F)F)cc1 [Example 2-3] | – | – | – | – | 23 | KH,app at 20 ± ° C. (1H) [2]: 21
4 | CC(=O)C(C)(C)[N+](=O)[O-] [Example 2-1, 3-methyl-3-nitrobutan-2-one] | – | – | – | – | – | KH,app at 20 ± ° C. ([2]; D2O/H2O (5/95, v/v), 23 mM): 0.22; solubility in water [3]: low solubility in water
5 | O=C(c1ccccc1)C(F)(F)F [Example 2-5] | – | – | – | – | 370 (^19F) | –
6 | CC(F)(F)C(=O)c1ccccc1 [Example 2-2, 2,2-difluoro-1-phenyl-1-propanone] | – | – | – | – | 3.3 | KH,app at 20 ± ° C. (1H) [2]: 2.8

Further lines, with some results ahead:

Row | KH at 25° C. ([1]; D2O/H2O (5/95, v/v)) | ΔG ° ([1]; D2O/H2O (5/95, v/v)) [kcal/mol] | ΔH ° ([1]; D2O/H2O (5/95, v/v)) [kcal/mol] | −TΔS ° ([1]; D2O/H2O (5/95, v/v)) [kcal/mol] | KH,app at 20 ± ° C. (19F) [2] | Compound | other results
7 | 1.5 | -0.263 ± 0.12 | -5.47 ± 0.12 | 5.21 ± 0.12 | – | CCC(=O)C(C)=O [Example 2-11] | KH at 25° C. (KH,app) ([1]; DMSO/H2O (1/1, mol/mol)): 0.45^a; ΔG ° ([1]; DMSO/H2O (1/1, mol/mol)): 0.48 kcal/mol; ΔH ° ([1]; DMSO/H2O (1/1, mol/mol)): -5.74 kcal/mol; −TΔS ° ([1]; DMSO/H2O (1/1, mol/mol)): 6.21 kcal/mol; enol observed relative to ketone ([1]; NMR): about 0.08
8 | 0.063 | 1.63 ± 0.48 | -5.86 ± 0.359 | 7.48 ± 0.335 | – | CC(=O)C(C)(C)C#N [Example 2-6] | –
9 | 2.5 | -0.526 ± 0.359 | -5.98 ± 0.359 | 5.45 ± 0.359 | – | CC(=O)C(C)=O [Example 2-10] | –
10 | – | – | – | – | 500 (^19F) | O=C(c1ccc(F)cc1)C(F)(F)F [Example 2-4] | –

From US11045745B2, “Reactive extraction of water” (University of Pittsburgh—Of the Commonwealth System of …, priority 2017, dated 2021)
